Measured values from ChEMBL document CHEMBL3352214, “Studies on indolizines. Evaluation of their biological properties as microtubule-interacting agents and as melanoma targeting compounds” (Eur J Med Chem, 2015).

How the values were obtained:
[1] = system: MDA-MB-435; experiment: Growth inhibition of human MDA-MB-435 cells after 48 hrs by SRB assay; type: functional; conditions: MDA-MB-435, 48 h
[2] = system: CAKI-1; experiment: Growth inhibition of human Caki1 cells at 10^-5 M after 48 hrs by SRB assay; type: functional; conditions: CAKI-1, 48 h, read-out: GI
[3] = system: NCI-H522; experiment: Growth inhibition of human NCI-H522 cells at 10^-5 M after 48 hrs by SRB assay; type: functional; conditions: NCI-H522, 48 h, read-out: GI
[4] = system: NCI-H522; experiment: Cytotoxicity against human NCI-H522 cells assessed as cell growth at 10^-5 M after 48 hrs by SRB assay; type: functional; conditions: NCI-H522, 48 h, read-out: Activity
[5] = Growth inhibition of human HCT116 cells at 10^-5 M after 48 hrs by SRB assay; type: functional; conditions: HCT-116, 48 h, read-out: GI
[6] = system: NCI-H522; experiment: Growth inhibition of human NCI-H522 cells after 48 hrs by SRB assay; type: functional; conditions: NCI-H522, 48 h
[7] = system: MDA-MB-468; experiment: Growth inhibition of human MDA-MB-468 cells after 48 hrs by SRB assay; type: functional; conditions: MDA-MB-468, 48 h
[8] = system: Malme-3M; experiment: Growth inhibition of human MALME-3M cells at 10^-5 M after 48 hrs by SRB assay; type: functional; conditions: read-out: GI
[9] = system: NCI/ADR-RES; experiment: Growth inhibition of human NCI/ADR-RES cells after 48 hrs by SRB assay; type: functional
[10] = system: SNB-75; experiment: Growth inhibition of human SNB75 cells after 48 hrs by SRB assay; type: functional; conditions: SNB-75, 48 h
[11] = system: MCF7; experiment: Growth inhibition of human MCF7 cells after 48 hrs by SRB assay; type: functional; conditions: MCF7, 48 h
[12] = Growth inhibition of human SF295 cells at 10^-5 M after 48 hrs by SRB assay; type: functional; conditions: SF-295, 48 h, read-out: GI
[13] = system: SR; experiment: Growth inhibition of human SR cells after 48 hrs by SRB assay; type: functional
[14] = Growth inhibition of human MOLT4 cells at 10^-5 M after 48 hrs by SRB assay; type: functional; conditions: MOLT-4, 48 h, read-out: GI
[15] = Inhibition of sheep brain tubulin polymerization by fluorescence assay; parameters: species or system Ovis aries
[16] = Cytotoxicity against human HCT116 cells assessed as cell growth at 10^-5 M after 48 hrs by SRB assay; type: functional; conditions: HCT-116, 48 h, read-out: Activity
[17] = Growth inhibition of human HOP92 cells at 10^-5 M after 48 hrs by SRB assay; type: functional; conditions: HOP-92, 48 h, read-out: GI
[18] = system: SNB-75; experiment: Growth inhibition of human SNB75 cells at 10^-5 M after 48 hrs by SRB assay; type: functional; conditions: SNB-75, 48 h, read-out: GI
[19] = system: HL-60(TB); experiment: Growth inhibition of human HL-60(TB) cells at 10^-5 M after 48 hrs by SRB assay; type: functional; conditions: HL-60, 48 h, read-out: GI
[20] = species on record: Ovis aries; experiment: Inhibition of sheep brain tubulin polymerization at 100 uM by fluorescence assay
[21] = system: HT-29; experiment: Growth inhibition of human HT-29 cells after 48 hrs by SRB assay; type: functional; conditions: HT-29, 48 h
[22] = system: T47D; experiment: Growth inhibition of human T47D cells at 10^-5 M after 48 hrs by SRB assay; type: functional; parameters: Activity: scale not given: the % may be the effect or the level left
[23] = system: MDA-MB-435; experiment: Cytotoxicity against human MDA-MB-435 cells assessed as cell growth at 10^-5 M after 48 hrs by SRB assay; type: functional; conditions: MDA-MB-435, 48 h, read-out: Activity
[24] = Growth inhibition of human OVCAR3 cells after 48 hrs by SRB assay; type: functional; conditions: OVCAR-3, 48 h
[25] = system: HL-60(TB); experiment: Growth inhibition of human HL-60(TB) cells after 48 hrs by SRB assay; type: functional; conditions: HL-60, 48 h
[26] = system: KM12; experiment: Growth inhibition of human KM12 cells after 48 hrs by SRB assay; type: functional; conditions: KM12, 48 h
[27] = system: MCF7; experiment: Growth inhibition of human MCF7 cells at 10^-5 M after 48 hrs by SRB assay; type: functional; conditions: MCF7, 48 h, read-out: GI
[28] = Growth inhibition of human PC3 cells at 10^-5 M after 48 hrs by SRB assay; type: functional; conditions: PC-3, 48 h, read-out: GI
[29] = system: SK-MEL-5; experiment: Growth inhibition of human SK-MEL-5 cells after 48 hrs by SRB assay; type: functional; conditions: SK-MEL-5, 48 h
[30] = system: A498; experiment: Growth inhibition of human A498 cells after 48 hrs by SRB assay; type: functional; conditions: A498, 48 h
[31] = Growth inhibition of human EKVX cells at 10^-5 M after 48 hrs by SRB assay; type: functional; conditions: read-out: GI
[32] = system: MDA-MB-435; experiment: Growth inhibition of human MDA-MB-435 cells at 10^-5 M after 48 hrs by SRB assay; type: functional; conditions: MDA-MB-435, 48 h, read-out: GI
[33] = Growth inhibition of human COLO205 cells after 48 hrs by SRB assay; type: functional; conditions: COLO 205, 48 h
[34] = Growth inhibition of human PC3 cells after 48 hrs by SRB assay; type: functional; conditions: PC-3, 48 h
[35] = system: A498; experiment: Growth inhibition of human A498 cells at 10^-5 M after 48 hrs by SRB assay; type: functional; conditions: A498, 48 h, read-out: GI
[36] = system: MOLT-4; experiment: Cytotoxicity against human MOLT4 cells assessed as cell growth at 10^-5 M after 48 hrs by SRB assay; type: functional; conditions: MOLT-4, 48 h, read-out: Activity
[37] = Growth inhibition of human HCT15 cells at 10^-5 M after 48 hrs by SRB assay; type: functional; conditions: HCT-15, 48 h, read-out: GI

CCOC(=O)c1cc(C(=O)c2cc(OC)c(OC)c(OC)c2)n2ccc(C)cc12
GI50 [1]: 234 nM | inhibition of growth at 10 µM [2]: 66% | inhibition of growth at 10 µM [3]: 100% | growth at 10 µM [4]: -9% | inhibition of growth at 10 µM [5]: 100% | GI50 [6]: 585 nM | GI50 [7]: 410 nM | inhibition of growth at 10 µM [8]: 74% | GI50 [9]: 411 nM | GI50 [10]: 324 nM | GI50 [11]: 339 nM | inhibition of growth at 10 µM [12]: 85% | GI50 [13]: 310 nM | inhibition of growth at 10 µM [14]: 50% | IC50 [15]: 28100 nM | growth at 10 µM [16]: -58% | inhibition of growth at 10 µM [17]: 88% | inhibition of growth at 10 µM [18]: 82% | inhibition of growth at 10 µM [19]: 92% | inhibition [20]: 72% | GI50 [21]: 393 nM | Activity [22]: 83% | growth at 10 µM [23]: -17% | GI50 [24]: 343 nM | GI50 [25]: 630 nM | GI50 [26]: 497 nM | inhibition of growth at 10 µM [27]: 88% | inhibition of growth at 10 µM [28]: 79% | GI50 [29]: 411 nM | GI50 [30]: 272 nM | inhibition of growth at 10 µM [31]: 50% | inhibition of growth at 10 µM [32]: 100% | GI50 [33]: 650 nM | GI50 [34]: 976 nM

CCOC(=O)c1cc(C(=O)c2ccc(OC)c(OC)c2)n2ccc(OC)cc12
inhibition of growth at 10 µM [2]: 3% | inhibition of growth at 10 µM [3]: 0% | inhibition of growth at 10 µM [5]: 2% | inhibition of growth at 10 µM [35]: 15% | inhibition of growth at 10 µM [8]: 12% | growth at 10 µM [36]: -53% | inhibition of growth at 10 µM [12]: 3% | inhibition of growth at 10 µM [14]: 100% | inhibition of growth at 10 µM [18]: 0% | inhibition [20]: 51% | inhibition of growth at 10 µM ([22]; Homo sapiens, T47D, 48 h, read-out: GI): 4% | inhibition of growth at 10 µM [37]: 7% | inhibition of growth at 10 µM [27]: 8% | inhibition of growth at 10 µM [28]: 12% | inhibition of growth at 10 µM [31]: 0% | inhibition of growth at 10 µM [32]: 2%
